Experimental data reported in patent publication US20230340012A1, “NATURAL AND SYNTHETIC COMPOUNDS FOR TREATING CANCER AND OTHER DISEASES” (PACIFIC ARROW LIMITED, priority 2009, published 2023).
Read-outs that look alike come from different tables or passages of the source.

Columns and labels:
cancer cells [1] = test: Inhibition of cancer growth, cancer invasion, cell invasion or cancer cell invasion; format: cell-based
From the text: The program is based on our purification methods and biological assays including the MTT assay. See International Application No. PCT/US05/31900, filed Sep. 7, 2005, U.S. Serial No. 11/289,142, filed Nov. 28, 2005, and U.S. Serial No. 11/131551, filed May 17, 2005, and PCT/US2008/002086, 1188-ALA-PCT, filed Feb. 15, 2008, 12/344,682, 1020-B1-US, filed Dec. 29, 2008. The details of Analysis of gene expression of ES2 cells after Y-treatment by Microarray, Data Analysis Methods and Western blot in PCT/US2008/002086, 1188-ALA-PCT, filed Feb. 15, 2008, and the cell invasion experiments methods in International Application PCT/US2010/0042240, filed Jul. 16, 2010.

Erythrocytes (RBC) = test: The haemolytic assay; settings: in words, no concentration given
cancer cells [2] = test: MTT cytotoxic assay of esterification products (Cytotoxicity activity); format: cell-based, human
Outline: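 Cytotoxicity was read by MTT (Carmichael method, modified), with cells seeded 24 h ahead of treatment. Sixteen human cancer lines spanning bone, lung, bladder, ovary, colon, pancreas, prostate, skin, mouth, kidney, breast, liver, brain, leukemia and cervix were used. Test samples were acyl chloride esterification products of triterpenes, as mixtures or HPLC-purified compounds.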

[3] = E4A esterified with Crotonoyl chloride (Cro = Crotonoyl), compounds isolated with HPLC
[4] = MTT cytotoxic assay, isolated esterification products of E4A
[5] = esterification products isolated with HPLC, graded strong / moderate / weak

With CC1(C)CC2C3=CCC4[C@@]5(C)CC[C@H](O[C@@H]6OC(C(=O)O)[C@@H](O)[C@@H](O[C@@H]7O[C@@H](CO)[C@@H](O)C7O)C6O[C@@H]6OC(CO)[C@H](O)[C@@H](O)C6O)C(C)(C)C5CC[C@@]4(C)[C@]3(C)[C@@H](O)[C@@H](O)[C@@]2(CO)[C@@H](O)[C@@H]1O (some centres unmarked) [AKOH] the anti-cancer activity (cancer cells [1]) was “no anti-cancer activity”, the “inhibiting cancer growth, cancer invasion, cell invasion or cancer cell invasion” value (from here on “inhibiting cancer growth”) (cancer cells [1]) was “no effect” and the “inhibiting cancer growth” value (cancer cells [1]; listed as AKOH-Y) was “do not show the ability”. For the same compound, the hemolytic activity (Erythrocytes (RBC)) was “no hemolytic activity”.
In the case of CC1O[C@@H](OC2[C@H](OC3[C@H](O[C@H]4C(O[C@@H]5OC(CO)[C@H](O)[C@@H](O)C5O)[C@H](O[C@H]5CC[C@@]6(C)C(CC[C@]7(C)C6CC[C@]68O[C@H](O)[C@]9(C6CC(C)(C)[C@@H](O)[C@@H]9O)[C@H](O)C[C@]87C)C5(C)C)OC(C(=O)O)[C@H]4O)OC(CO)[C@H](O)[C@H]3O)OC(C)[C@H](O)[C@@H]2O)C(O)[C@@H](O)[C@H]1O (some centres unmarked) [AKOH-M10], the “inhibiting cancer growth” value (cancer cells [1]) was “do not show the ability”.
In the case of CC1(C)CC2C3=CCC4C5(C)CCC(O)C(C)(CO)C5CCC4(C)C3(C)C(O)C(O)C2(CO)C(O)C1O (centres unmarked) [Compound E4AY2], the anti-cancer activity (cancer cells [1]) was “no anti-cancer activity” and the hemolytic activity (Erythrocytes (RBC)) was “no hemolytic activity”.
With CC=CC(=O)OCC1(C)C(O)CCC2(C)C1CCC1(C)C2CC=C2C3CC(C)(C)C(OC(=O)C=CC)C(OC(=O)C=CC)C3(COC(=O)C=CC)C(O)CC21C (centres unmarked) [Compound I8] the Cytotoxicity activity (cancer cells [2]; [3]) was “weak”.
CC=CC(=O)OCC1(C)C(O)CCC2(C)C1CCC1(C)C2CC=C2C3CC(C)(C)C(OC(=O)C=CC)C(O)C3(COC(=O)C=CC)C(O)CC21C (centres unmarked) [Compound I4] was tested, and the Cytotoxicity activity (cancer cells [2]; [3]) was “moderate”.
CC=C(C)C(=O)OCC1(C)C(OC(=O)C(C)=CC)CCC2(C)C1CCC1(C)C2CC=C2C3CC(C)(C)C(OC(=O)C(C)=CC)C(OC(=O)C(C)=CC)C3(COC(=O)C(C)=CC)C(OC(=O)C(C)=CC)CC21C (centres unmarked) [Compound A19] was tested, and the Cytotoxicity activity (cancer cells [2]; [4]) was “none”.
With CC=C(C)C(=O)OCC1(C)C(O)CCC2(C)C1CCC1(C)C2CC=C2C3CC(C)(C)C(O)C(OC(C)=O)C3(CO)C(O)CC21C (centres unmarked) [Tig—Acy—6] the Cytotoxicity activity (cancer cells [2]; [5]) was “moderate”.
For CCC(CC)C(=O)OC1C(OC(=O)C(CC)CC)C2(CO)C(O)CC3(C)C(=CCC4C5(C)CCC(OC(=O)C(CC)CC)C(C)(CO)C5CCC43C)C2CC1(C)C (centres unmarked) [Compound E23], the Cytotoxicity activity (cancer cells [2]; [4]) was “moderate”.
CC=CC(=O)OCC1(C)C(O)CCC2(C)C1CCC1(C)C2CC=C2C3CC(C)(C)C(OC(=O)C=CC)C(O)C3(CO)C(O)CC21C (centres unmarked) [Compound I29] was tested, and the Cytotoxicity activity (cancer cells [2]; [3]) was “moderate”.
CC=C(C)C(=O)OCC1(C)C(O)CCC2(C)C1CCC1(C)C2CC=C2C3CC(C)(C)C(O)C(OC(=O)CCCCC)C3(CO)C(O)CC21C (centres unmarked) [Tig—Hex—6] was tested, and the Cytotoxicity activity (cancer cells [2]; [5]) was “moderate”.
For CC=C(C)C(=O)OCC1(C)C(O)CCC2(C)C1CCC1(C)C2CC=C2C3CC(C)(C)C(O)C(OC(=O)C(C)=CC)C3(CO)C(O)CC21C (centres unmarked) [Compound A30], the Cytotoxicity activity (cancer cells [2]; [4]) was “moderate”.
In the case of CC=C(C)C(=O)OCC12C(O)CC3(C)C(=CCC4C5(C)CCC(O)C(C)(CO)C5CCC43C)C1CC(C)(C)C(O)C2OC(=O)C(C)=CC (centres unmarked) [Compound A26], the Cytotoxicity activity (cancer cells [2]; [4]) was “moderate”.
With CC=C(C)C(=O)OCC1(C)C(O)CCC2(C)C1CCC1(C)C2CC=C2C3CC(C)(C)C(O)C(O)C3(CO)C(O)CC21C (centres unmarked) [Compound A1] the Cytotoxicity activity (cancer cells [2]; [4]) was “moderate”.
For CCCCCC(=O)OCC1(C)C(O)CCC2(C)C1CCC1(C)C2CC=C2C3CC(C)(C)C(OC(=O)CCCCC)C(O)C3(CO)C(O)CC21C (centres unmarked) [Compound D29], the Cytotoxicity activity (cancer cells [2]; [4]) was “moderate”.
CC1(C)CC2C3=CCC4C5(C)CCC(O)C(C)(C)C5CCC4(C)C3(C)CC(O)C2(CO)C(O)C1O (centres unmarked) [Compound E5A] was tested, and the anti-cancer activity (cancer cells [1]) was “no anti-cancer activity”, the “inhibiting cancer growth” value (cancer cells [1]) was “no effect” and the hemolytic activity (Erythrocytes (RBC)) was “no hemolytic activity”.
With CC1(C)CC2C3=CCC4C5(C)CCC(O)C(C)(COC(=O)c6ccccc6)C5CCC4(C)C3(C)CC(O)C2(CO)C(OC(=O)c2ccccc2)C1OC(=O)c1ccccc1 (centres unmarked) [Compound K21] the Cytotoxicity activity (cancer cells [2]; E4A esterified with 2-propenoyl chloride (Ppe = Propenoyl), compounds isolated with HPLC) was “moderate”, the Cytotoxicity activity (cancer cells [2]; E4A esterified with Propionyl chloride (Ppi = Propionyl), compounds isolated with HPLC) was “moderate” and the Cytotoxicity activity (cancer cells [2]; E4A esterified with benzoyl chloride (Ben = benzoyl), compounds isolated with HPLC) was “moderate”. The Cytotoxicity activity (cancer cells [2]; esterification products of core compound E4A with (2E)-2-pentenoyl chloride (2pe = 2-pentenoyl)) was “moderate”, the Cytotoxicity activity (cancer cells [2]; esterification products of core compound E4A with Butyryl chloride (But = Butyryl)) was “moderate” and the Cytotoxicity activity (cancer cells [2]; esterification products of core compound E4A with Decanoyl chloride (Dec = Decanoyl)) was “moderate”. The Cytotoxicity activity (cancer cells [2]; esterification products of core compound E4A with Isobutyryl chloride (Iso = Isobutyryl)) was “moderate”, the Cytotoxicity activity (cancer cells [2]; esterification products of core compound E4A with Myristoyl chloride (Myr = Myristoyl)) was “moderate” and the Cytotoxicity activity (cancer cells [2]; esterification products of core compound E4A with Octanoyl chloride (Oct = Octanoyl)) was “moderate”.
With C=CCCC(=O)OCC12C(O)CC3(C)C(=CCC4C5(C)CCC(O)C(C)(CO)C5CCC43C)C1CC(C)(C)C(O)C2O (centres unmarked) [Compound C2] the Cytotoxicity activity (cancer cells [2]; [4]) was “moderate”.
For CC(=O)OCC12C(OC(C)=O)CC3(C)C(=CCC4C5(C)CCC(O)C(C)(CO)C5CCC43C)C1CC(C)(C)C(O)C2O (centres unmarked) [Compound H28], the Cytotoxicity activity (cancer cells [2]; E4A esterified with Acetyl chloride (Acy = Acetyl), compounds isolated with HPLC) was “moderate”.
